In US6583138B1, “Heterocyclic-ring condensed benzothiazine compound” (Eisai Co., Ltd., priority 1998, dated 2003):
Like-named read-outs stand apart in the source and are kept apart here.

Tests used:
[1] = test system: RBL-2H3 cells; assay: Inhibition of serotonin liberation from IgE-sensitized, antigen-stimulated RBL-2H3 cells; type: cell-based; details: Rattus norvegicus, [3H]-serotonin release, IgE-sensitized cells stimulated with specific antigen
From the text: (1) Inhibitory Effects on Various Mediators Release from Rat Basophilic Leukemia Cell Line (RBL-2H3)
RBL-2H3cells (i.e., a cell line originating in rat cells), by stimulation with IgE sepecific antigen, not only release histamine and serotonin but also release and produce cytokines such as TNF α and prostaglandins which are inflammatory mediators. In this experimental system, inhibitory effects on various mediators release were examined by using serotonin as an indication.
The cells were beforehand labeled with [^3H]-labeled serotonin and, at the same time, sensitized with the IgE antibody. After incubating with the compounds of the present invention, they were stimulated with the specific antigen. Then the inhibitory activity of each compound was calculated from the amount of the [^3H]-labeled serotonin thus liberated into the medium due to the stimulation and the amount of [^3H]-labeled serotonin liberated when no compound of the present invention was added.

[2] = test system: human basophils; assay: Inhibition of mediator (histamine, peptide leukotriene) liberation from human basophils stimulated with mite antigen; type: cell-based; details: leukocyte fraction, enzyme immunoassay
Experimental: (2) Inhibitory Effects on Various Mediators Release from Human Basophils
6 ml of 6% dextran (for separating leukocytes, having a high molecular weight) was added to 20 ml of heparinized blood. After stirring well, the resulting mixture was allowed to stand at 37° C. for 30 min and thus erythrocytes were precipitated. The upper layer was taken up and phosphate buffered saline was added thereto followed by centrifugation at 185 g for 8 minutes to give a crude leukocyte fraction. These cells were subjected to hypotonic hematolysis and then suspended in D-PBS(+) containing 0.1%-BSA. The resulting suspension was used in the subsequent experiment as the leukocyte fraction containing basophils. 0.4 ml of this cell suspension was preliminarily heated to 37° C. for 5 min and then 0.05 ml of a specimen solution was added thereto followed by a pretreatment at 37° C. for 15 min. Next, 0.05 ml of a mite antigen solution was added thereto to induce an antigen-antibody reaction. After 10 min, the reaction was ceased by ice-cooling. Then the reaction mixture was centrifuged again at 185 g for 10 min and histamine and peptide leukotrienes in the resulting supernatant were determined by using enzyme immunoassay kits. From the results of the assay, the activities of the a heterocyclic ring condensed benzothiazine compound of inhibiting the liberation of histamine and peptide leukotriene were determined.
The results are given in Table 2, wherein the term “leukotriene” means peptide leukotriene.

[3] = histamine, read-out: IC50 (μM) in mediator liberation from human basophils: histamine
[4] = peptide leukotriene, read-out: IC50 (μM) in mediator liberation from human basophils: leukotriene

`Cc1ccc2c(c1C)N(CCCNCc1ccccc1)c1ccsc1[S+]2[O-]` (centres unmarked) [Example 1, 9-(3-Benzylaminopropyl)-7,8-dimethyl-3-thieno [1,4]benzothiazine-4-oxide] gave an IC50 [1] of 2 µM, an IC50 [2, 3] of 10 to 30 µM and an IC50 [2, 4] of 10 µM.
Molecule `Cc1ccc2c(c1C)N(CCCNC(C)(C)c1ccccc1)c1ccsc1[S+]2[O-]` (centres unmarked) [Example 2] has an IC50 [2, 3] of 30 µM and an IC50 [2, 4] of 10 to 30 µM.
With `Cc1ccc2c(c1C)N(CCCN)c1ccsc1[S+]2[O-]` (centres unmarked) [Example 3, 9-(3-Aminopropyl)-7,8-dimethyl-3-thieno[1,4]benzothiazine-4-oxide] the IC50 [1] was 8 µM.
`Cc1ccc2c(c1C)N(CCCNCc1cccs1)c1ccsc1[S+]2[O-]` (centres unmarked) [Example 4, 7,8-Dimethyl-9-[3-(2-thiophenyl)methylaminopropyl]-3-thieno[1,4]benzothiazine-4-oxide] was tested, and the IC50 [1] was 2 µM, the IC50 [2, 3] was 10 to 30 µM and the IC50 [2, 4] was 10 µM.
`COc1ccc(CNCCCN2c3ccsc3[S+]([O-])c3ccc(C)c(C)c32)o1` (centres unmarked) [Example 5] was tested, and the IC50 [1] was 6 µM.
In the case of `COc1ccsc1CNCCCN1c2ccsc2[S+]([O-])c2ccc(C)c(C)c21` (centres unmarked) [Example 6], the IC50 [1] is reported as 2 µM, the IC50 [2, 3] is reported as 30 µM and the IC50 [2, 4] is reported as 10 to 30 µM.
For `Cc1ccc2c(c1C)N(CCCNC(C)(C)c1ccccc1)c1c(Br)csc1[S+]2[O-]` (stereo not drawn) [Example 7, 1-Bromo-7,8-dimethyl-9-[3-(α,α-dimethylbenzyl)aminopropyl]-3-thieno[1,4]benzothiazine-4-oxide], the IC50 [1] was 2 µM, the IC50 [2, 3] was 3 to 10 µM and the IC50 [2, 4] was 3 to 10 µM.
`Cc1ccc2c(c1C)N(CCCNCc1ccccc1)c1c(Br)csc1[S+]2[O-]` (centres unmarked) [Example 8, 9-(3-benzylaminopropyl)-7,8-dimethyl-3-thieno[1,4]benzothiazine-4-oxide] showed an IC50 [1] of 1 µM, an IC50 [2, 3] of 10 µM and an IC50 [2, 4] of 3 µM.
`COc1ccsc1CNCCCN1c2c(Br)csc2[S+]([O-])c2ccc(C)c(C)c21` (centres unmarked) [Example 9] was tested, and the IC50 [1] was 0.5 µM, the IC50 [2, 3] was 10 to 30 µM and the IC50 [2, 4] was 3 µM.
In the case of `Cc1ccc2c(c1C)N(CCCNCc1cccc(F)c1O)c1c(Br)csc1[S+]2[O-]` (centres unmarked) [Example 10], the IC50 [1] is reported as 0.5 µM, the IC50 [2, 3] is reported as 30 µM and the IC50 [2, 4] is reported as 3 to 10 µM.
For `Cc1ccc2c(c1C)N(CCCNCc1ccccc1)c1c(CO)csc1[S+]2[O-]` (centres unmarked) [Example 11, 9-(3-benzylaminopropyl)-1-hydroxymethyl-7,8dimethyl-3-thieno[1,4]benzothiazine-4-oxide], the IC50 [1] was 5 µM, the IC50 [2, 3] was 10 µM and the IC50 [2, 4] was 3 µM.
`Cc1ccc2c(c1C)N(CCCNCc1ccccc1)c1c(sc(CO)c1Br)[S+]2[O-]` (centres unmarked) [Example 12, 1-Bromo-9-(3-benzylaminopropyl)-2-hydroxymethyl-7,8-dimethyl-3-thieno[1,4]benzothiazine-4-oxide] showed an IC50 [1] of 4 µM, an IC50 [2, 3] of 10 µM and an IC50 [2, 4] of 3 µM.
With `Cc1ccc2c(c1C)N(CCCN)c1cccnc1[S+]2[O-]` (centres unmarked) [Example 13] the IC50 [1] was 3 µM.
Work on `Cc1ccc2c(c1C)N(CCCNCc1ccccc1)c1cccnc1[S+]2[O-]` (centres unmarked) [Example 15] yielded an IC50 [1] of 0.5 µM.
`Cc1ccc2c(c1C)N(CCCNCc1ccccc1O)c1cccnc1[S+]2[O-]` (centres unmarked) [Example 16] showed an IC50 [1] of 2 µM, an IC50 [2, 3] of 10 µM and an IC50 [2, 4] of 10 to 30 µM.
Molecule `COc1cccc(CNCCCN2c3cccnc3[S+]([O-])c3ccc(C)c(C)c32)c1O` (centres unmarked) [Example 17] has an IC50 [1] of 2 µM, an IC50 [2, 3] of 10 to 30 µM and an IC50 [2, 4] of 10 to 30 µM.
`Cc1ccc2c(c1C)N(CCCNCc1cccc(C)c1O)c1cccnc1[S+]2[O-]` (centres unmarked) [Example 18] showed an IC50 [1] of 2 µM, an IC50 [2, 3] of 30 µM and an IC50 [2, 4] of 10 to 30 µM.
With `Cc1ccc2c(c1C)N(CCCCNCc1ccccc1)c1cccnc1[S+]2[O-]` (centres unmarked) [Example 19] the IC50 [1] was 1 µM.
Work on `COc1ccccc1CNCCCN1c2cccnc2[S+]([O-])c2ccc(C)c(C)c21` (centres unmarked) [Example 20] yielded an IC50 [1] of 5 µM.
`COc1cccc(CNCCCN2c3cccnc3[S+]([O-])c3ccc(C)c(C)c32)c1` (centres unmarked) [Example 24] was tested, and the IC50 [1] was 4 µM.
`COc1ccc(CNCCCN2c3cccnc3[S+]([O-])c3ccc(C)c(C)c32)cc1` (centres unmarked) [Example 25] gave an IC50 [1] of 2 µM.
`Cc1ccc2c(c1C)N(CCCNCN1CCN(Cc3ccccc3)CC1)c1cccnc1[S+]2[O-]` (centres unmarked) [Example 26] gave an IC50 [1] of 2 µM.
In the case of `Cc1ccc2c(c1C)N(CCCNCc1ccc(Cl)cc1Cl)c1cccnc1[S+]2[O-]` (centres unmarked) [Example 31], the IC50 [1] is reported as 2 µM, the IC50 [2, 3] is reported as 10 to 30 µM and the IC50 [2, 4] is reported as 10 µM.
In the case of `COc1c(CNCCCN2c3cccnc3[S+]([O-])c3ccc(C)c(C)c32)ccc(Cl)c1Cl` (centres unmarked) [Example 33], the IC50 [1] is reported as 2 µM, the IC50 [2, 3] is reported as 10 to 30 µM and the IC50 [2, 4] is reported as 3 to 10 µM.
`Cc1ccc2c(c1C)N(CCCNC(C)(C)c1ccccc1)c1cccnc1[S+]2[O-]` (centres unmarked) [Example 34] was tested, and the IC50 [1] was 5 µM.
`Cc1ccc2c(c1C)N(CCCN(C)Cc1ccccc1)c1cccnc1[S+]2[O-]` (centres unmarked) [Example 35] gave an IC50 [1] of 3 µM.
`Cc1ccc2c(c1C)N(CCCNCc1ccccc1)c1cnccc1[S+]2[O-]` (centres unmarked) [Example 36] showed an IC50 [1] of 4 µM.
`COc1cccc(CNCCCN2c3cnccc3[S+]([O-])c3ccc(C)c(C)c32)c1O` (centres unmarked) [Example 37] showed an IC50 [1] of 3 µM, an IC50 [2, 3] of 30 µM and an IC50 [2, 4] of 30 µM.
For `Cc1ccc2c(c1C)N(CCCNCc1ccccc1N(C)C)c1cnccc1[S+]2[O-]` (centres unmarked) [Example 38], the IC50 [1] was 4 µM.
`Cc1ccc2c(c1C)N(CCCNCN1CCN(Cc3ccccc3)CC1)c1cnccc1[S+]2[O-]` (centres unmarked) [Example 39] was tested, and the IC50 [1] was 3 µM.
With `Cc1ccc2c(c1C)N(CCCNCc1ccccn1)c1cnccc1[S+]2[O-]` (centres unmarked) [Example 40] the IC50 [1] was 4 µM.
In the case of `Cc1ccc2c(c1C)N(CCCNCc1cccc(F)c1O)c1cnccc1[S+]2[O-]` (centres unmarked) [Example 41], the IC50 [1] is reported as 3 µM.
`COc1ccc2c(n1)[S+]([O-])c1ccc(C)c(C)c1N2CCCNCc1ccccc1` (centres unmarked) [Example 43] gave an IC50 [1] of 2 µM, an IC50 [2, 3] of 30 µM and an IC50 [2, 4] of 10 µM.
`Cc1ccc2c(n1)[S+]([O-])c1ccc(C)c(C)c1N2CCCNCc1ccccc1` (centres unmarked) [Example 44] gave an IC50 [1] of 2 µM.
Molecule `Cc1ccc2c(c1C)N(CCCNCc1ccccc1)c1cc(Br)cnc1[S+]2[O-]` (centres unmarked) [Example 45] has an IC50 [1] of 1 µM.
In the case of `Cc1ccc2c(c1C)N(CCCNCc1ccccc1)c1cc(Cl)cnc1[S+]2[O-]` (centres unmarked) [Example 46], the IC50 [1] is reported as 2 µM.
Molecule `Cc1cnc2c(c1)N(CCCNCc1ccccc1)c1c(ccc(C)c1C)[S+]2[O-]` (centres unmarked) [Example 47] has an IC50 [1] of 3 µM.
`Cc1ccc2c(c1C)N(CCCNCc1ccccc1)c1cc(C#N)cnc1[S+]2[O-]` (centres unmarked) [Example 48] showed an IC50 [1] of 4 µM.
`CCCOc1ccc2c(n1)[S+]([O-])c1ccc(C)c(C)c1N2CCCNCc1ccccc1` (centres unmarked) [Example 49] gave an IC50 [1] of 2 µM, an IC50 [2, 3] of 10 to 30 µM and an IC50 [2, 4] of 3 µM.
Molecule `CCOc1ccc2c(n1)[S+]([O-])c1ccc(C)c(C)c1N2CCCNCc1ccccc1` (centres unmarked) [Example 52] has an IC50 [1] of 3 µM, an IC50 [2, 3] of 10 to 30 µM and an IC50 [2, 4] of 3 µM.
